pKd: −log10 of the molar value.
Experiments:
[1] = target: T1, PDE6D::HA11 fusion protein (Homo sapiens, UniProt O43924); test: Binding assay with rabbit reticulocyte lysate-produced human PDE6D; conditions: absence or presence of 10 μM non-immobilized atorvastatin; dot blot
T1 construct: made in house; host or cells: coupled transcription-translation in rabbit reticulocyte lysate (pTNT vector)

rat liver NQO2 = target: T2, rat liver NQO2 (Rattus norvegicus, UniProt Q6AY80); test: Binding curve assay, rat liver NQO2 and atorvastatin bait; conditions: rat liver extract; semi-quantitative, densitometric scanning of silver-stained gel; read-out: apparent Kd NQO2
T2 construct: from tissue; host or cells: rat liver protein extract
T2 sequence (Q6AY80 1-231): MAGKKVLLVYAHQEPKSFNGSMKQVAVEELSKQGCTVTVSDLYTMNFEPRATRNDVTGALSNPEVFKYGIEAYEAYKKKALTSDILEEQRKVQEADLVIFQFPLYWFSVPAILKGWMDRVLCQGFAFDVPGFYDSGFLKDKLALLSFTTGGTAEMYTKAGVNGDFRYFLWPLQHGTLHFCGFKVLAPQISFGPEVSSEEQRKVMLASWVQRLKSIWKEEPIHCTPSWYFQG

NQO2 = target: T3, NQO2 (Rattus norvegicus, UniProt Q6AY80); test: NQO2 binding pocket competition experiment, rat brain protein extract; conditions: competitors menadione, quercetin, FAD
T3 construct: from tissue; host or cells: rat liver or brain protein extract
T3 sequence (Q6AY80 1-231): T2 sequence (Q6AY80 1-231)
Text: The crystal structure of the NQO2 protein has shown that this protein contains three distinct binding pockets. […] The data were obtained by loading the pooled eluates on a SDS-PAGE gel followed by silver staining.

PDE6D [2] = target: T4, PDE6D (Homo sapiens, UniProt O43924); test: Binding assay with E. coli-expressed human PDE6D; parameters: made in house; host or cells: T7 phage amplified in E. coli; conditions: 10 μM competitors; dot blot
Experimental: The full-length coding sequence for human PDE6D was cloned into the pRSET vector for E. coli expression. The PDE6D coding sequence was fused in-frame with a His tag for purification purposes. […] The experiments were performed in duplicate. The data were obtained by loading the eluates from the binding experiment on a dot blot apparatus and subsequent detection with a PDE6D-specific antibody.

HMG-CoA reductase = target: T5, HMG-CoA reductase (Homo sapiens, UniProt P04035); test: enzymatic activity-based HMG-CoA reductase assay; type: biochemical; conditions: concentrations up to 4 μM
T5 sequence (P04035 1-888): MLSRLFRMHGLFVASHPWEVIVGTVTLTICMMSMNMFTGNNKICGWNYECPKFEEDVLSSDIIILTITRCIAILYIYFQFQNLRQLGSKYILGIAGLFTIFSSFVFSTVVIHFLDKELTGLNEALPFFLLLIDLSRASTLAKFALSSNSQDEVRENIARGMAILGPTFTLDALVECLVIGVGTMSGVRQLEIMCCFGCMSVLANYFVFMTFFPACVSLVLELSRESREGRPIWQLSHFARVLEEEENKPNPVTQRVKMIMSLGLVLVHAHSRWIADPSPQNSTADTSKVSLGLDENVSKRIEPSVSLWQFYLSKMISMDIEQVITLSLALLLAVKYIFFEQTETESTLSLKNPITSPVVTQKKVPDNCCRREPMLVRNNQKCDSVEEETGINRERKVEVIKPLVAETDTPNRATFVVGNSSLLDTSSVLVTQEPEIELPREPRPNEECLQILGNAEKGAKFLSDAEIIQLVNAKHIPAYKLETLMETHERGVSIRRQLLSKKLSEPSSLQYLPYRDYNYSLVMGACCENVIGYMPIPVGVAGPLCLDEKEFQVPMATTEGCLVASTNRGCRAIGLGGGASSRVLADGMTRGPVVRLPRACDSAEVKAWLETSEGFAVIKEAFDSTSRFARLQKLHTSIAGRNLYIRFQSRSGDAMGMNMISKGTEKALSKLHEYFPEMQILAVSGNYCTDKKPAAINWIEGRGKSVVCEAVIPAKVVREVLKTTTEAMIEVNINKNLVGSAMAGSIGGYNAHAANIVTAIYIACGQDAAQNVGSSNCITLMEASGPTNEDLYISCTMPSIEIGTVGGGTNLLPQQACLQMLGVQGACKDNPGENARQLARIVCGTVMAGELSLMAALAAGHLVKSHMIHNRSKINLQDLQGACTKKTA
Experimental: In addition, compounds 781430, 781066, 780780, 780754, 779974, 781456, 782236, 782756, 783250 and 780520 were tested in enzymatic activity-based HMG-CoA reductase assays. […] Blank cells indicate there was no detectable interaction while the “nd” designation indicates the Kd was not determined.

CLB2 = target: T6, CLB2 (Homo sapiens, UniProt P22676); test: T7 phage display competition binding assay (immobilized atorvastatin), CLB2; conditions: soluble competitor vs atorvastatin-coated affinity matrix; T7 phage displaying CLB2
T6 construct: made in house; host or cells: T7 phage amplified in E. coli
T6 sequence (P22676 1-271): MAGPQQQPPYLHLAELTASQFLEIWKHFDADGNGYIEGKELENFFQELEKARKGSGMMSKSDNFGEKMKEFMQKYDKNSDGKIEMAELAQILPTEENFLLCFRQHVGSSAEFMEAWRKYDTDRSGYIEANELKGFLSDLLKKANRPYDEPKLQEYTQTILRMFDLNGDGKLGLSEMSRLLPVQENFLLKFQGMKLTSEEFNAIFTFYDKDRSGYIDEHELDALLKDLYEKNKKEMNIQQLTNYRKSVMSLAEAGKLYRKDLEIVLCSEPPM
Text: The T7 phage displaying human PDE6D and CLB2 were obtained following the procedure of WO 01/18234, published Mar. 15, 2001, and U.S. patent applications Ser. No. 10/115,442, “Phage Display Affinity Filter and Forward Screen,” filed Apr. 2, 2002 and Ser. No. 10/214,654, “Uncoupling DNA Insert Propagation and Protein Display,” filed Aug. 7, 2002. […] The phage eluate was then amplified by growth in E. coli and the affinity enrichment procedure was repeated.
The dissociation constants, Kd's, for the interaction between the pyrrole compounds and the novel targets were obtained following the procedure of the co-pending patent applications U.S. Ser. Nos. 10/115,442, “Phage Display Affinity Filter and Forward Screen,” filed Apr. 2, 2002 and 60/480,587, “Protein Family Profiling Tool and Methods,” filed Jun. 20, 2003.

PDE6D [3] = target: T4, PDE6D; test: phage-based competition binding screen at 2 μM; parameters: made in house; host or cells: phage; conditions: 2 μM competitor, duplicate
Experimental: Forty-four molecules were screened for PDE6D binding activity in a standard phage-based competition binding assay, as described in co-pending U.S. patent applications Ser. No. 10/115,442, filed 2 Apr. 2002, and Ser. No. 10/406,797 filed on 2 Apr. 2003 (or PCT International Application PCT/US03/10247 filed 2 Apr. 2003). All compounds were screened in duplicate (duplicate sets of bars) at a concentration of 2 μM.

CC(C)c1c(C(=O)Nc2ccccc2)c(-c2ccccc2)c(-c2ccc(F)cc2)n1CC[C@@H](O)C[C@@H](O)CC(=O)O [atorvastatin, reference compound]
binding of PDE6D::HA11 fusion protein to immobilized atorvastatin bait [1]: PDE6D bound to atorvastatin | pKd (rat liver NQO2): ~6.30 | NQO2 binding pocket (NQO2): binds the electron donor NRH pocket | binding of E. coli expressed human PDE6D to immobilized atorvastatin bait (PDE6D [2]): E. coli expressed human PDE6D binds to atorvastatin

CC(C)c1c(C(=O)Nc2ccccc2)c(-c2ccccc2)c(-c2ccc(F)cc2)n1CC(O)C(O)C(O)C(O)CO (centres unmarked) [Compound 782236]
inhibition of the activity of HMG-CoA reductase (HMG-CoA reductase): none of the tested compounds inhibited

CC(C)c1[nH]c(-c2ccc(F)cc2)c(-c2ccccc2)c1C(=O)Nc1ccccc1 [Compound 781430]
pKd (CLB2): 6.03 | inhibition of the activity of HMG-CoA reductase (HMG-CoA reductase): none of the tested compounds inhibited | fraction of PDE6D-displaying phage bound to immobilized atorvastatin (screen outcome) (PDE6D [3]): candidate lead compounds

Reference: US7323490B2, “Pyrrole compounds and uses thereof” (Ambit Biosciences Corporation, priority 2003, dated 2008)
